Test results taken from publication PMC4862738 (Biomacromolecules, 2016).

Target: wt-PhaCCs (Chromobacterium sp. USM2, UniProt E1APK1)
Assay: continuous DTNB assay of CoA release, […] nm
Format: biochemical
Conditions: KPi 100 mM pH 7.8, 30 °C, BSA 0.2 mg/mL, DTNB 0.3 mM, Triton X-100 50 mg/L

**Q.** Which “continuous DTNB assay of CoA release, 412 nm” value does the source give for `C[C@@H](O)CC(=O)SCCNC(=O)CCNC(=O)[C@H](O)C(C)(C)COP(=O)(O)OP(=O)(O)OC[C@H]1O[C@@H](n2cnc3c(N)ncnc32)[C@H](O)[C@@H]1OP(=O)(O)O` [1a, HBCoA] here?
**A.** Its value is “addition of BSA would increase SA of PhaCCs with HBCoA”.
